Measured values published in patent US20230106592A1, “METHOD FOR TREATING CANCER USING A COMBINATION OF DNA DAMAGING AGENTS AND ATR INHIBITORS” (Vertex Pharmaceuticals Incorporated, priority 2015, published 2023).

Assay: Phase I trial, combination with carboplatin: adverse events and DLTs
Format: in vivo, human
Protocol: Pts with advanced solid tumors enrolled in 2 sequential parts.
In part A, single pt cohorts received a compound of Formula A-2 once weekly in 21-day cycles with 3+3 dose escalation cohorts being implemented if grade 2 drug-related adverse events (AEs) occurred. […] If a DLT was reported, the cohort was expanded to include 3 additional pts with subsequent dose escalation being permitted if no further DLTs occurred. Paired pre- and post-treatment biopsies from selected pts in part B were assessed for pCHK1 levels by immunohistochemistry. Models based on preclinical and clinical data were used to simulate hematologic toxicities and pCHK1 inhibition for pts treated with a compound of Formula A-2 and CP.

[1] = A-2 90 mg/m2 + Carboplatin AUC 5 (n = 3)
[2] = A-2 90 mg/m^2 + Carboplatin AUC5 (N = 6)
[3] = A-2 120 mg/m2 + Carboplatin AUC 4 (n = 3)
[4] = A-2 120 mg/m2 + Carboplatin AUC 5 (n = 3)
[5] = A-2 120 mg/m^2 + Carboplatin AUC4 (N = 3)

CNCc1ccc(-c2cc(-c3nc(-c4ccc(S(=O)(=O)C(C)C)cc4)cnc3N)on2)cc1 [Compound A-2]
2 (20.0) n (%): Treatment related adverse event: Alopecia, All Grades [1] | Treatment related adverse event: Thrombocytopenia, All Grades [1]
3 (30.0) n (%): Treatment related adverse event: Nausea, All Grades [1] | Treatment related adverse event: Neutropenia, All Grades [1]
2: Treatment related adverse event: Alopecia, All [2] | Treatment related adverse event: Neutropenia, All [2] | Treatment related adverse event: Thrombocytopenia, All [2]
0 n (%): Treatment related adverse event: Alopecia, Grade ≥ 3 [1] | Treatment related adverse event: Anemia, Grade ≥ 3 [1] | Treatment related adverse event: Fatigue, Grade ≥ 3 [1] | Treatment related adverse event: Flushing, Grade ≥ 3 [1] | Treatment related adverse event: Headache, All Grades [1] | Treatment related adverse event: Headache, Grade ≥ 3 [1] | Treatment related adverse event: Hypersensitivity, All Grades [1] | Treatment related adverse event: Hypersensitivity, Grade ≥ 3 [1] | Treatment related adverse event: Infusion related reaction, Grade ≥ 3 [1] | Treatment related adverse event: Nausea, Grade ≥ 3 [1] | Treatment related adverse event: Neuropathy peripheral, All Grades [1] | Treatment related adverse event: Neuropathy peripheral, Grade ≥ 3 [1] | Treatment related adverse event: Pruritus, Grade ≥ 3 [1] | Treatment related adverse event: Thrombocytopenia, Grade ≥ 3 [1] | Treatment related adverse event: Vomiting, All Grades [1] | Treatment related adverse event: Vomiting, Grade ≥ 3 [1] | Treatment related adverse event: Alopecia, All Grades [3] | Treatment related adverse event: Alopecia, Grade ≥ 3 [3] | Treatment related adverse event: Anemia, Grade ≥ 3 [3] | Treatment related adverse event: Any Event, Grade ≥ 3 [3] | Treatment related adverse event: Fatigue, All Grades [3] | Treatment related adverse event: Fatigue, Grade ≥ 3 [3] | Treatment related adverse event: Flushing, Grade ≥ 3 [3] | Treatment related adverse event: Headache, All Grades [3] | Treatment related adverse event: Headache, Grade ≥ 3 [3] | Treatment related adverse event: Hypersensitivity, All Grades [3] | Treatment related adverse event: Hypersensitivity, Grade ≥ 3 [3] | Treatment related adverse event: Infusion related reaction, All Grades [3] | Treatment related adverse event: Infusion related reaction, Grade ≥ 3 [3] | Treatment related adverse event: Nausea, Grade ≥ 3 [3] | Treatment related adverse event: Neuropathy peripheral, All Grades [3] | Treatment related adverse event: Neuropathy peripheral, Grade ≥ 3 [3] | Treatment related adverse event: Neutropenia, All Grades [3] | Treatment related adverse event: Neutropenia, Grade ≥ 3 [3] | Treatment related adverse event: Pruritus, Grade ≥ 3 [3] | Treatment related adverse event: Thrombocytopenia, Grade ≥ 3 [3] | Treatment related adverse event: Vomiting, All Grades [3] | Treatment related adverse event: Vomiting, Grade ≥ 3 [3] | Treatment related adverse event: Alopecia, All Grades [4] | Treatment related adverse event: Alopecia, Grade ≥ 3 [4] | Treatment related adverse event: Anemia, Grade ≥ 3 [4] | Treatment related adverse event: Fatigue, Grade ≥ 3 [4] | Treatment related adverse event: Flushing, All Grades [4] | Treatment related adverse event: Flushing, Grade ≥ 3 [4] | Treatment related adverse event: Headache, All Grades [4] | Treatment related adverse event: Headache, Grade ≥ 3 [4] | Treatment related adverse event: Infusion related reaction, Grade ≥ 3 [4] | Treatment related adverse event: Nausea, Grade ≥ 3 [4] | Treatment related adverse event: Neuropathy peripheral, All Grades [4] | Treatment related adverse event: Neuropathy peripheral, Grade ≥ 3 [4] | Treatment related adverse event: Pruritus, All Grades [4] | Treatment related adverse event: Pruritus, Grade ≥ 3 [4] | Treatment related adverse event: Thrombocytopenia, Grade ≥ 3 [4] | Treatment related adverse event: Vomiting, All Grades [4] | Treatment related adverse event: Vomiting, Grade ≥ 3 [4]
3 (100) n (%): Treatment related adverse event: Any Event, All Grades [4]
0: Treatment related adverse event: Alopecia, ≥3 [2] | Treatment related adverse event: Anemia, ≥3 [2] | Treatment related adverse event: Fatigue, ≥3 [2] | Treatment related adverse event: Flushing, All [2] | Treatment related adverse event: Flushing, ≥3 [2] | Treatment related adverse event: Headache, All [2] | Treatment related adverse event: Headache, ≥3 [2] | Treatment related adverse event: Hypertension, All [2] | Treatment related adverse event: Hypertension, ≥3 [2] | Treatment related adverse event: Nausea, ≥3 [2] | Treatment related adverse event: Neuropathy peripheral, All [2] | Treatment related adverse event: Neuropathy peripheral, ≥3 [2] | Treatment related adverse event: Respiratory tract infection, ≥3 [2] | Treatment related adverse event: Thrombocytopenia, ≥3 [2] | Treatment related adverse event: Vomiting, All [2] | Treatment related adverse event: Vomiting, ≥3 [2] | Treatment related adverse event: Alopecia, All [5] | Treatment related adverse event: Alopecia, ≥3 [5] | Treatment related adverse event: Anemia, ≥3 [5] | Treatment related adverse event: Fatigue, All [5] | Treatment related adverse event: Fatigue, ≥3 [5] | Treatment related adverse event: Flushing, ≥3 [5] | Treatment related adverse event: Headache, All [5] | Treatment related adverse event: Headache, ≥3 [5] | Treatment related adverse event: Hypertension, All [5] | Treatment related adverse event: Hypertension, ≥3 [5] | Treatment related adverse event: Nausea, ≥3 [5] | Treatment related adverse event: Neuropathy peripheral, All [5] | Treatment related adverse event: Neuropathy peripheral, ≥3 [5] | Treatment related adverse event: Neutropenia, All [5] | Treatment related adverse event: Neutropenia, ≥3 [5] | Treatment related adverse event: Respiratory tract infection, All [5] | Treatment related adverse event: Respiratory tract infection, ≥3 [5] | Treatment related adverse event: Thrombocytopenia, ≥3 [5]
4 (40.0) n (%): Treatment related adverse event: Anemia, All Grades [1] | Treatment related adverse event: Fatigue, All Grades [1]
3: Treatment related adverse event: Anemia, All [2] | Treatment related adverse event: Fatigue, All [2]
9 (90.0) n (%): Treatment related adverse event: Any Event, All Grades [1]
1 (10.0) n (%): Treatment related adverse event: Any Event, Grade ≥ 3 [1] | Treatment related adverse event: Flushing, All Grades [1] | Treatment related adverse event: Infusion related reaction, All Grades [1] | Treatment related adverse event: Neutropenia, Grade ≥ 3 [1] | Treatment related adverse event: Pruritus, All Grades [1]
1 (33.3) n (%): Treatment related adverse event: Anemia, All Grades [3] | Treatment related adverse event: Flushing, All Grades [3] | Treatment related adverse event: Nausea, All Grades [3] | Treatment related adverse event: Pruritus, All Grades [3] | Treatment related adverse event: Thrombocytopenia, All Grades [3] | Treatment related adverse event: Fatigue, All Grades [4] | Treatment related adverse event: Hypersensitivity, All Grades [4] | Treatment related adverse event: Hypersensitivity, Grade ≥ 3 [4] | Treatment related adverse event: Infusion related reaction, All Grades [4] | Treatment related adverse event: Neutropenia, Grade ≥ 3 [4] | Treatment related adverse event: Thrombocytopenia, All Grades [4]
1: Treatment related adverse event: Nausea, All [2] | Treatment related adverse event: Neutropenia, ≥3 [2] | Treatment related adverse event: Anemia, All [5] | Treatment related adverse event: Flushing, All [5] | Treatment related adverse event: Nausea, All [5] | Treatment related adverse event: Thrombocytopenia, All [5]
